Reference: US6352722B1, “Derivatized carbohydrates, compositions comprised thereof and methods of use thereof” (Quadrant Holdings Cambridge Limited, priority 1997, dated 2002)

Test: Tg of HDC formulations with incorporated active
Assay type: physicochemical
Conditions: hydrophilic active (diltiazem hydrochloride) incorporated
Excerpt: The model hydrophilic drug, diltiazem hydrochloride (“hydrophilic active”), was incorporated (10% loading) into solid vehicles of the single straight chain HDC trehalose octaacetate or the branched chain HDCs trehalose octa-3,3, dimethylbutyrate and trehalose octapivalate as well as composite formulations (1:1 ratio) of the two branched-chain HDCs or the straight chain HDC trehalose octaacetate and the branched chain HDC trehalose octapivalate, by quenching from the melt. Release of the active from the HDC solid dose delivery vehicle was assessed using an in vitro USP (volume 23) type 2 dissolution test in saline containing 0.1% sodium cholate as the dissolution medium.
The model hydrophilic drug diltiazem hydrochloride was also incorporated (5% loading) into solid vehicles of the single branched chain HDCs trehalose diisobutyrate hexaacetate and trehalose octapivalate and composite formulations (1:1 ratio) of the two branched-chain HDCs by solvent removal by rotary evaporation, in a Buchi Rotavapor R-124, of a 20% solution of active plus HDCs in a dichloromethane: acetone mixed solvent (9:1 ratio) system. […] (trehalose octapivalate) of the single branched-chain HDC formulations of active.
The model hydrophobic steroid fluticasone propionate (“hydrophobic active”) was incorporated (5% loading) into solid vehicles of the single straight chain HDC trehalose octaacetate or the branched chain HDCs trehalose octa-3,3, dimethylbutyrate and trehalose dipropanoate hexaacetate and composite formulations (1:1 ratio) of the two branched-chain HDCs by either quenching from the melt or solvent evaporation by rotary evaporation. Melt incorporation was carried out by melting the HDCs at 150-170° C. and dissolving the active in the melt at 120-140° C. Rotary evaporation was carried out using a Buchi Rotavapor R-124 using a 20% solution of active plus HDCs in a dichloromethane: acetone mixed solvent (9:1 ratio) system. The hydrophobic active was also incorporated into solid vehicles of the branched chain HDCs, trehalose octapivalate, trehalose diisobutyrate hexaacetate and lactose isobutyrate heptaacetate, either by quenching from the melt or solvent evaporation by rotary evaporation. Release of hydrophobic active from the HDC solid dose delivery vehicle was assessed using an in vitro USP (volume 23) type 2 dissolution test in saline containing 0.1% sodium cholate as the dissolution medium.
As an example of a polypeptide drug, the polypeptide hormone insulin (“polypeptide active”) was incorporated (10% loading) into solid vehicles of the single branched chain HDCs trehalose diisobutyrate hexaacetate and trehalose hexapivalate and composite formulations of the branched chain HDCs trehalose diisobutyrate hexaacetate and trehalose octapivalate (8:1 ratio) by solvent removal by lyophilization of a 20% solution of insulin plus HDCs in dimethylsulfoxide. […] Release of active from the HDC solid dose delivery vehicle was assessed using an in vitro USP (volume 23) type 2 dissolution test in saline containing 0.1% sodium cholate as the dissolution medium.

Tg (° C.) with active incorporated [°C] | Molecule
46.5 | Trehalose diisobutyrate hexaacetate

Same assay, conditions: hydrophobic active (fluticasone propionate, 5% loading) incorporated

Tg (° C.) with active incorporated [°C] | Molecule
50 | Trehalose diisobutyrate hexaacetate

Same assay, conditions: polypeptide active (insulin, 10% loading) incorporated by lyophilization from dimethylsulfoxide

Tg (° C.) with active incorporated [°C] | Molecule
50.1 | Trehalose diisobutyrate hexaacetate

Test: Glass transition temperature (Tg) of derivatized carbohydrates, by DSC
Assay type: physicochemical
Conditions: derivatized carbohydrate alone, Tables 1-4
Excerpt: The reaction product can be characterized structurally by methods known in the art, including, but not limited to, nuclear magnetic resonance spectroscopy (NMR) and its material science properties characterized by differential scanning calorimetry (DSC). The characteristic melting points and Tgs (glass transition temperatures) for the derivatized carbohydrates can also be determined by DSC and other methods known in the art.
The carbohydrate derivatives were routinely synthesized by standard esterification of the carbohydrate with the chloride of the desired hydrocarbon side chain under anhydrous conditions and the resulting derivatives purified by standard techniques of solvent extraction and re-crystallization. For example, trehalose octa-3,3-dimethylbutyrate was synthesized by reacting 3,3,-dimethylbutyroyl chloride with trehalose in anhydrous pyridine, followed by extraction with ether, hydrochloric acid, potassium carbonate solution and water and finally re-crystallized twice from alcohol to yield colorless, needle-like crystals (˜80% yield) of m.pt 138-140° C., αD 112°. Trehalose hexa-3,3-dimethylbutyrate (THEX) can be prepared by protecting the 6,6′-hydroxy group of trehalose with a bulky group such as trityl or t-butyldiphenylsilyl, for example by heating trehalose and trityl chloride in pyridine. The 6,6′-ditrityltrehalose can be acylated with 3,3-dimethylbutyroyl chloride in pyridine to give 6,6′-ditritylhexa-3,3-dimethylbutyryltrehalose. The trityl group can be removed by strong acid, for example hydrogen bromide in acetic acid, to give THEX. TACT can be prepared by acylating THEX with acetic anhydride in pyridine. Suitable work-up yields the HDC in crystalline form. The physical characteristics, melting points and glass transition temperatures (Tg, ° C.) of selected carbohydrate derivatives are shown in Tables 1-5.

Molecule | Tg(° C.)
CC(C)C(=O)OCC1O[C@H](OCC2O[C@@H](O[C@]3(COC(=O)C(C)C)O[C@H](COC(=O)C(C)C)[C@@H](OC(=O)C(C)C)[C@H]3OC(=O)C(C)C)C(OC(=O)C(C)C)[C@@H](OC(=O)C(C)C)[C@@H]2OC(=O)C(C)C)C(OC(=O)C(C)C)[C@@H](OC(=O)C(C)C)[C@H]1OC(=O)C(C)C (stereo partly drawn) [Raffinose undeca-isobutyrate] | 15 °C
CC(=O)OCC1OC(OC2OC(COC(C)=O)C(OC(=O)C(C)C)C(OC(C)=O)C2OC(C)=O)C(OC(C)=O)C(OC(C)=O)C1OC(=O)C(C)C (stereo not drawn) [Trehalose 4,4′-diisobutyrate hexaacetate] | 41 °C
CCC(=O)OC1C(COC(C)=O)OC(OC2OC(COC(C)=O)C(OC(=O)CC)C(OC(C)=O)C2OC(C)=O)C(OC(C)=O)C1OC(C)=O (stereo not drawn) [Trehalose 4,4′-dipropionate hexaactetate] | 42 °C
CC(=O)OC1C(COC(=O)C(C)(C)C)OC(OC2OC(COC(=O)C(C)(C)C)C(OC(C)=O)C(OC(C)=O)C2OC(C)=O)C(OC(C)=O)C1OC(C)=O (stereo not drawn) [Trehalose 6,6′ dipivalate hexaacetate] | 56 °C
CCC(CC)C(=O)OC[C@H]1O[C@H](O[C@H]2O[C@H](COC(=O)C(CC)CC)[C@@H](OC(C)=O)[C@H](OC(C)=O)[C@H]2OC(C)=O)[C@H](OC(C)=O)[C@@H](OC(C)=O)[C@@H]1OC(C)=O [Trehalose 6,6′-di-(2-ethylbutyrate) hexaacetate] | 30 °C
CC(=O)O[C@@H]1[C@@H](OC(C)=O)[C@@H](O[C@H]2O[C@H](COC(=O)CC(C)(C)C)[C@@H](OC(C)=O)[C@H](OC(C)=O)[C@H]2OC(C)=O)O[C@H](COC(=O)CC(C)(C)C)[C@H]1OC(C)=O [Trehalose 6,6′-di-(3,3-dimethylbutyrate) hexaacetate] | 50 °C
CC(=O)OC1C(COC(=O)C(C)C)OC(OC2OC(COC(=O)C(C)C)C(OC(C)=O)C(OC(C)=O)C2OC(C)=O)C(OC(C)=O)C1OC(C)=O (stereo not drawn) [Trehalose 6,6′-diisobutyrate hexaacetate] | 42 °C
CCC(=O)OC[C@H]1O[C@H](O[C@H]2O[C@H](COC(=O)CC)[C@@H](OC(C)=O)[C@H](OC(C)=O)[C@H]2OC(C)=O)[C@H](OC(C)=O)[C@@H](OC(C)=O)[C@@H]1OC(C)=O [Trehalose 6,6′-dipropionate hexaactetate] | 43 °C
CCC(C)(C)C(=O)OC[C@H]1O[C@H](O[C@H]2O[C@H](COC(=O)C(C)(C)CC)[C@@H](OC(C)=O)[C@H](OC(C)=O)[C@H]2OC(C)=O)[C@H](OC(C)=O)[C@@H](OC(C)=O)[C@@H]1OC(C)=O [Trehalose 6,6′di-(2,2-dimethylbutyrate) hexaacetate] | 47 °C
CCCC(=O)OC[C@H]1O[C@H](O[C@H]2O[C@H](COC(=O)CCC)[C@@H](OC(=O)CCC)[C@H](OC(=O)CCC)[C@H]2OC(=O)CCC)[C@H](OC(=O)CCC)[C@@H](OC(=O)CCC)[C@@H]1OC(=O)CCC [Trehalose octabutyrate, reference compound] | syrup
CC(C)C(=O)OCC1O[C@@H](O[C@H]2OC(COC(=O)C(C)C)[C@@H](OC(=O)C(C)C)[C@H](OC(=O)C(C)C)C2OC(=O)C(C)C)C(OC(=O)C(C)C)C(OC(=O)C(C)C)[C@H]1OC(=O)C(C)C (stereo partly drawn) [Trehalose octaisobutyrate] | 7 °C
CCC(=O)OCC1O[C@@H](O[C@H]2OC(COC(=O)CC)[C@@H](OC(=O)CC)[C@H](OC(=O)CC)C2OC(=O)CC)C(OC(=O)CC)C(OC(=O)CC)[C@H]1OC(=O)CC (stereo partly drawn) [Trehalose octapropionate, reference compound] | 3 °C
CCCCC(=O)OCC1OC(OC2OC(COC(=O)CCCC)C(OC(=O)CCCC)C(OC(=O)CCCC)C2OC(=O)CCCC)C(OC(=O)CCCC)C(OC(=O)CCCC)C1OC(=O)CCCC (stereo not drawn) [Trehalose octavalerate, reference compound] | syrup
CC(=O)O[C@@H]1[C@@H](OC(=O)CC(C)(C)C)[C@@H](OC(=O)CC(C)(C)C)O[C@H](COC(=O)CC(C)(C)C)[C@H]1O[C@@H]1O[C@H](COC(=O)CC(C)(C)C)[C@H](OC(=O)CC(C)(C)C)[C@H](OC(=O)CC(C)(C)C)[C@H]1OC(=O)CC(C)(C)C [α-Lactose 3-acetyl-hepta-3,3-dimethylbutyrate] | 48 °C
Trehalose heptapivalate | 73 °C

Further lines, results first:

Tg(° C.) | Molecule
67 °C | CC(=O)OC[C@H]1O[C@@H](O[C@H]2[C@H](OC(C)=O)[C@@H](OC(C)=O)C(OC(C)=O)O[C@@H]2COC(C)=O)[C@H](OC(C)=O)[C@@H](OC(C)=O)[C@H]1OC(C)=O (stereo partly drawn) [α, β-Lactose octaacetate, reference compound]
53 °C | CC(C)(C)CC(=O)OC[C@H]1O[C@@H](O[C@H]2[C@H](OC(=O)CC(C)(C)C)[C@@H](OC(=O)CC(C)(C)C)[C@@H](OC(=O)CC(C)(C)C)O[C@@H]2COC(=O)CC(C)(C)C)[C@H](OC(=O)CC(C)(C)C)[C@@H](OC(=O)CC(C)(C)C)[C@H]1OC(=O)CC(C)(C)C [α-Lactose octa-3,3-dimethyl-butyrate]
70 °C | CC(=O)OC[C@H]1O[C@@H](O[C@H]2[C@H](OC(C)=O)[C@@H](OC(C)=O)[C@@H](OC(C)=O)O[C@@H]2COC(C)=O)[C@H](OC(C)=O)[C@@H](OC(C)=O)[C@H]1OC(C)=O [α-Lactose octaacetate, reference compound]
52 °C | CCO[C@@H]1O[C@H](COC(C)=O)[C@@H](O[C@@H]2O[C@H](COC(C)=O)[C@@H](OC(C)=O)[C@H](OC(C)=O)[C@H]2OC(C)=O)[C@H](OC(C)=O)[C@H]1OC(C)=O [β-Cellobiose ethyl heptaacetate]
77 °C | CO[C@@H]1O[C@H](COC(C)=O)[C@@H](O[C@@H]2O[C@H](COC(C)=O)[C@@H](OC(C)=O)[C@H](OC(C)=O)[C@H]2OC(C)=O)[C@H](OC(C)=O)[C@H]1OC(C)=O [β-Cellobiose methyl heptaacetate]
15 °C | CCC(=O)OC[C@H]1O[C@@H](O[C@H]2[C@H](OC(=O)CC)[C@@H](OC(=O)CC)[C@H](OC(=O)CC)O[C@@H]2COC(=O)CC)[C@H](OC(=O)CC)[C@@H](OC(=O)CC)[C@@H]1OC(=O)CC [β-Cellobiose octapropionate, reference compound]
60 °C | CC(=O)OC[C@H]1O[C@@H](O[C@H]2[C@H](OC(C)=O)[C@@H](OC(C)=O)[C@H](OC(=O)C(C)C)O[C@@H]2COC(C)=O)[C@H](OC(C)=O)[C@@H](OC(C)=O)[C@H]1OC(C)=O [β-Lactose isobutyrate heptaacetate]
63 °C | CC(=O)OC[C@H]1O[C@@H](O[C@H]2[C@H](OC(C)=O)[C@@H](OC(C)=O)[C@H](OC(C)=O)O[C@@H]2COC(C)=O)[C@H](OC(C)=O)[C@@H](OC(C)=O)[C@H]1OC(C)=O [β-Lactose octaacetate, reference compound]
88 °C | CC(C)(C)C(=O)OC[C@H]1O[C@@H](O[C@H]2[C@H](OC(=O)C(C)(C)C)[C@@H](OC(=O)C(C)(C)C)[C@H](OC(=O)C(C)(C)C)O[C@@H]2COC(=O)C(C)(C)C)[C@H](OC(=O)C(C)(C)C)[C@@H](OC(=O)C(C)(C)C)[C@H]1OC(=O)C(C)(C)C [β-Lactose octapivalate]
81 °C | Trehalose pentapivalate
96 °C | Trehalose tetrapivalate

Same assay, conditions: derivatized carbohydrate without active, Table 5

Tg(° C.) [°C] | Molecule
42 | Trehalose diisobutyrate hexaacetate
